# Measured values reported in patent US20090137549A1, “Novel compounds useful for the treatment of degenerative & inflamatory diseases” (priority 2006, published 2009).
# Target: PDE1A (Homo sapiens, UniProt P54750)
# Assay: PDE1A dose response, Cyclic Nucleotide Phosphodiesterase Assay Kit from Biomol (colorimetric)
# Assay type: biochemical
# Settings: purified PDE1A enzyme, 100 μM cAMP
# In short: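 Purified PDE1A hydrolysed 100 μM cAMP with 5′-nucleotidase in Tris 20 mM pH 7.4 with calmodulin, Ca2+, Mg2+, 45 min at 37° C. Released phosphate read by malachite-green absorbance at 615 nm. Duplicate 8-point 1/3 dilutions from 20 μM, 1% DMSO; 10 μM vardenafil defined 100% inhibition.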
row,SMILES,IC50
1,"CC(C)N1CCN(c2ccc(OC(=O)N3CC(c4nc5c(cnn5C(C)(C)C)c(=O)[nH]4)C3)cc2)CC1 [Example 116, 4-(4-Isopropylpiperazin-1-yl)phenyl 3-(1-tert-butyl-4-oxo-4,5-dihydro-1H-pyrazolo [3,4-d]pyrimidin-6-yl)azetidine-1-carboxylate]",1 to 100 nM
2,"CC(C)(C)n1ncc2c(=O)[nH]c(C3CN(C(=O)OCC4CCCCC4)C3)nc21 [Example 117, cyclohexylmethyl 3-(1-tert-butyl-4-oxo-4,5-dihydro-1H-pyrazolo[3,4-d]pyrimidin-6-yl)azetidine-1-carboxylate]",1 to 100 nM
3,"CC(C)(C)n1ncc2c(=O)[nH]c(C3CN(C(=O)Oc4cccc(Cl)c4)C3)nc21 [Example 118, 3-chlorophenyl 3-(1-tert-butyl-4-oxo-4,5-dihydro-1H-pyrazolo[3,4-d]pyrimidin-6-yl)azetidine-1-carboxylate]",1 to 100 nM
4,"CC(C)(C)n1ncc2c(=O)[nH]c(C3CN(C(=O)Oc4ccc5c(c4)OCO5)C3)nc21 [Example 119, benzo[d][1,3]dioxol-5-yl 3-(1-tert-butyl-4-oxo-4,5-dihydro-1H-pyrazolo[3,4-d]pyrimidin-6-yl)azetidine-1-carboxylate]",1 to 100 nM
5,"O=C(OCC1CCCCC1)N1CC(c2nc3c(cnn3C3CCCCC3)c(=O)[nH]2)C1 [Example 120, cyclohexylmethyl 3-(1-cyclohexyl-4-oxo-4,5-dihydro-1H-pyrazolo[3,4-d]pyrimidin-6-yl)azetidine-1-carboxylate]",1 to 100 nM
6,"O=C(Oc1ccc(F)cc1)N1CC(c2nc3c(cnn3C3CCCCC3)c(=O)[nH]2)C1 [Example 121, 4-fluorophenyl 3-(1-cyclohexyl-4-oxo-4,5-dihydro-1H-pyrazolo[3,4-d]pyrimidin-6-yl)azetidine-1-carboxylate]",1 to 100 nM
7,"CC(C)(C)COC(=O)N1CC(c2nc3c(cnn3C3CCCCC3)c(=O)[nH]2)C1 [Example 122, neopentyl 3-(1-cyclohexyl-4-oxo-4,5-dihydro-1H-pyrazolo[3,4-d]pyrimidin-6-yl)azetidine-1-carboxylate]",101 to 500 nM
8,"Cc1nn(C2CCCCC2)c2nc(C3CN(C(=O)OC(C)(C)C)C3)[nH]c(=O)c12 [Example 123, tert-butyl 3-(1-cyclohexyl-3-methyl-4-oxo-4,5-dihydro-1H-pyrazolo[3,4-d]pyrimidin-6-yl)azetidine-1-carboxylate]",101 to 500 nM
9,"Cc1nn(C2CCCCC2)c2nc(C3CCCN(C(=O)Oc4ccccc4)C3)[nH]c(=O)c12 (centres unmarked) [Example 124, phenyl 3-(1-cyclohexyl-3-methyl-4-oxo-4,5-dihydro-1H-pyrazolo[3,4-d]pyrimidin-6-yl)piperidine-1-carboxylate]",501 to 1000 nM
10,"O=c1[nH]c(C2CN(c3nc4ccccc4[nH]3)C2)nc2c1cnn2C1CCCCC1 [Example 125, 1-Cyclohexyl-6-(1-(1H-benzo[d]imidazol-2-yl)azetidin-3-yl)-1H-pyrazolo[3,4-d]pyrimidin-4-(5H)-one]",1 to 100 nM
11,"CC(C)(C)n1ncc2c(=O)[nH]c(C3CN(c4nc5ccc(Br)cc5[nH]4)C3)nc21 [Example 126, 6-(1-(6-bromo-1H-benzo[d]imidazol-2-yl)azetidin-3-yl)-1-tert-butyl-1H-pyrazolo[3,4-d]pyrimidin-4(5H)-one]",1 to 100 nM
12,"CC(C)(C)n1ncc2c(=O)[nH]c(C3CN(c4nc5cc(C(F)(F)F)ccc5[nH]4)C3)nc21 [Example 127, 1-tert-butyl-6-(1-(5-(trifluoromethyl)-1H-benzo[d]imidazol-2-yl)azetidin-3-yl)-1H-pyrazolo[3,4-d]pyrimidin-4(5H)-one]",1 to 100 nM
13,"CC(C)(C)n1ncc2c(=O)[nH]c(C3CN(c4nc5ccccc5[nH]4)C3)nc21 [Example 128, 6-(1-(1H-benzo[d]imidazol-2-yl)azetidin-3-yl)-1-tert-butyl-1H-pyrazolo[3,4-d]pyrimidin-4(5H)-one]",1 to 100 nM
14,"O=c1[nH]c(C2CN(c3nc4ccccc4s3)C2)nc2c1cnn2C1CCCCC1 [Example 129, 6-(1-(benzo[d]thiazol-2-yl)azetidin-3-yl)-1-cyclohexyl-1H-pyrazolo[3,4-d]pyrimidin-4(5H)-one]",101 to 500 nM
15,"O=c1[nH]c(C2CN(c3nc4ccccc4o3)C2)nc2c1cnn2C1CCCCC1 [Example 130, 6-(1-(benzo[d]oxazol-2-yl)azetidin-3-yl)-1-cyclohexyl-1H-pyrazolo[3,4-d]pyrimidin-4(5H)-one]",101 to 500 nM
16,"Cn1c(N2CC(c3nc4c(cnn4C4CCCCC4)c(=O)[nH]3)C2)nc2ccccc21 [Example 131, 1-cyclohexyl-6-(1-(1-methyl-1H-benzo[d]imidazol-2-yl)azetidin-3-yl)-1H-pyrazolo[3,4-d]pyrimidin-4(5H)-one]",501 to 1000 nM
17,"O=c1[nH]c(C2CN(c3nc(-c4ccccc4)co3)C2)nc2c1cnn2C1CCCCC1 [Example 132, 1-cyclohexyl-6-(1-(4-phenyloxazol-2-yl)azetidin-3-yl)-1H-pyrazolo[3,4-d]pyrimidin-4(5H)-one]",1 to 100 nM
18,"O=c1[nH]c(C2CN(c3nnc(-c4ccccc4)o3)C2)nc2c1cnn2C1CCCCC1 [Example 133, 1-cyclohexyl-6-(1-(5-phenyl-1,3,4-oxadiazol-2-yl)azetidin-3-yl)-1H-pyrazolo[3,4-d]pyrimidin-4(5H)-one]",101 to 500 nM

row,SMILES,IC50
1,"O=c1[nH]c(C2CN(c3ncc(CN4CCOCC4)s3)C2)nc2c1cnn2C1CCCCC1 [Example 134, 1-cyclohexyl-6-(1-(5-(morpholinomethyl)thiazol-2-yl)azetidin-3-yl)-1H-pyrazolo[3,4-d]pyrimidin-4(5H)-one]",101 to 500 nM
2,"O=c1[nH]c(C2CN(c3ncc(CN4CCCCC4)s3)C2)nc2c1cnn2C1CCCCC1 [Example 135, 1-cyclohexyl-6-(1-(5-(piperidin-1-ylmethyl)thiazol-2-yl)azetidin-3-yl)-1H-pyrazolo[3,4-d]pyrimidin-4(5H)-one]",101 to 500 nM
3,"O=c1[nH]c(C2CN(c3ncc(-c4ccccc4)o3)C2)nc2c1cnn2C1CCCCC1 [Example 136, 1-cyclohexyl-6-(1-(5-phenyloxazol-2-yl)azetidin-3-yl)-1H-pyrazolo[3,4-d]pyrimidin-4(5H)-one]",101 to 500 nM
4,"CN1CCN(Cc2cnc(N3CC(c4nc5c(cnn5C5CCCCC5)c(=O)[nH]4)C3)s2)CC1 [Example 137, 1-cyclohexyl-6-(1-(5-((4-methylpiperazin-1-yl)methyl)thiazol-2-yl)azetidin-3-yl)-1H-pyrazolo[3,4-d]pyrimidin-4(5H)-one]",101 to 500 nM
5,"O=c1[nH]c(C2CN(c3ncc(CN4CCCCCC4)s3)C2)nc2c1cnn2C1CCCCC1 [Example 138, 6-(1-(5-(azepan-1-ylmethyl)thiazol-2-yl)azetidin-3-yl)-1-cyclohexyl-1H-pyrazolo[3,4-d]pyrimidin-4(5H)-one]",101 to 500 nM
6,"Cc1nn(C(C)(C)C)c2nc(C3CN(c4nnnn4-c4ccccc4)C3)[nH]c(=O)c12 [Example 139, 1-tert-butyl-3-methyl-6-(1-(1-phenyl-1H-tetrazol-5-yl)azetidin-3-yl)-1H-pyrazolo[3,4-d]pyrimidin-4(5H)-one]",101 to 500 nM
7,"O=c1[nH]c(C2CN(c3ncc(Br)s3)C2)nc2c1cnn2C1CCCCC1 [Example 140, 6-(1-(5-bromothiazol-2-yl)azetidin-3-yl)-1-cyclohexyl-1H-pyrazolo[3,4-d]pyrimidin-4(5H)-one]",501 to 1000 nM
8,"CC(C)(C)n1ncc2c(=O)[nH]c(C3CN(c4nccs4)C3)nc21 [Example 141, 1-tert-butyl-6-(1-(thiazol-2-yl)azetidin-3-yl)-1H-pyrazolo[3,4-d]pyrimidin-4(5H)-one]",501 to 1000 nM
9,"O=c1[nH]c(C2CN(c3nc(CN4CCOCC4)cs3)C2)nc2c1cnn2C1CCCCC1 [Example 142, 1-cyclohexyl-6-(1-(4-(morpholinomethyl)thiazol-2-yl)azetidin-3-yl)-1H-pyrazolo[3,4-d]pyrimidin-4(5H)-one]",101 to 500 nM
10,"CC(C)N1CCN(Cc2csc(N3CC(c4nc5c(cnn5C5CCCCC5)c(=O)[nH]4)C3)n2)CC1 [Example 143, 1-cyclohexyl-6-(1-(4-((4-isopropylpiperazin-1-yl)methyl)thiazol-2-yl)azetidin-3-yl)-1H-pyrazolo[3,4-d]pyrimidin-4(5H)-one]",1000 to 1500 nM
11,"CN1CCN(c2ccc3[nH]c(N4CC(c5nc6c(cnn6C(C)(C)C)c(=O)[nH]5)C4)nc3c2)CC1 [Example 144, 1-tert-butyl-6-(1-(5-(4-methylpiperazin-1-yl)-1H-benzo[d]imidazol-2-yl)azetidin-3-yl)-1H-pyrazolo[3,4-d]pyrimidin-4(5H)-one]",101 to 500 nM
12,"O=c1[nH]c(C2CN(c3ccc(S(=O)(=O)N4CCOCC4)cc3)C2)nc2c1cnn2C1CCCCC1 [Example 145, 1-Cyclohexyl-6-(1-(4-(Morpholinosulfonyl)phenyl)azetidin-3-yl)-1H-pyrazolo[3,4-d]pyrimidin-4(5H)-one]",1 to 100 nM
13,"Nc1cc(N2CC(c3nc4c(cnn4C4CCCCC4)c(=O)[nH]3)C2)ccc1[N+](=O)[O-] [Example 146, 6-(1-(3-amino-4-nitrophenyl)azetidin-3-yl)-1-cyclohexyl-1H-pyrazolo[3,4-d]pyrimidin-4(5H)-one]",1 to 100 nM
14,"CC(=O)c1ccc(N2CC(c3nc4c(cnn4C4CCCCC4)c(=O)[nH]3)C2)cc1 [Example 147, 6-(1-(4-acetoylphenyl)azetidin-3-yl)-1-cyclohexyl-1H-pyrazolo[3,4-d]pyrimidin-4(5H)-one]",1 to 100 nM
15,"N#Cc1ccc(N2CC(c3nc4c(cnn4C4CCCCC4)c(=O)[nH]3)C2)cc1 [Example 148, 4-(3-(1-cyclohexyl-4-oxo-4,5-dihydro-1H-pyrazolo[3,4-d]pyrimidin-6-yl)azetidin-1-yl)benzonitrile]",1 to 100 nM
16,"Cc1cc(N2CC(c3nc4c(cnn4C4CCCCC4)c(=O)[nH]3)C2)ccc1[N+](=O)[O-] [Example 149, 1-cyclohexyl-6-(1-(3-methyl-4-nitrophenyl)azetidin-3-yl)-1H-pyrazolo[3,4-d]pyrimidin-4(5H)-one]",1 to 100 nM
17,"N#Cc1ccccc1N1CC(c2nc3c(cnn3C3CCCCC3)c(=O)[nH]2)C1 [Example 150, 2-(3-(1-cyclohexyl-4-oxo-4,5-dihydro-1H-pyrazolo[3,4-d]pyrimidin-6-yl)azetidin-1-yl)benzonitrile]",101 to 500 nM
